Results as given in patent US6355799B1, “Substituted benzene compounds, process for their preparation, and herbicidal and defoliant compositions containing them” (ISK Americas Incorporated, priority 1997, dated 2002).

What was measured:
Type in all cases: in vivo
[1] = tested on: upland rice (Oryza sp., var. Tebonnet, RICE); test: Post-emerge test, crop safety; settings: post-emerge, 14 days after application, rating scale 0-100
Method in brief: (§1)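 Rating: 0–100 visual injury, 14 DAA. Application: acetone, 187 l/ha, 15–1000 g ai/ha, flat-fan track sprayer with nozzle 40–45 cm above soil or canopy. Post-emerge runs used 0.25% v/v surfactant on 2–3 leaf plants.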

[2] = tested on: field corn (Zea mays L., var. Dekalb 535, CORN); test: Post-emerge test, crop safety; settings: post-emerge, 14 days after application, rating scale 0-100
Method in brief: as §1

[3] = tested on: upland rice (Oryza sp., var. Tebonnet, RICE); test: Pre-emerge test, crop safety; settings: pre-emerge, 14 days after application, scale 0-100
Method in brief: (§2)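 Fourteen days after spraying, crop and weed injury was graded visually from 0, no effect, to 100, every plant dead. Test substances were dissolved in acetone and applied at 15–1000 g ai/ha with a flat-fan nozzle. Application was either pre-emergence, one day after sowing, or post-emergence at the 2–3 leaf stage.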

[4] = tested on: field corn (Zea mays L., var. Dekalb 535, CORN); test: Pre-emerge test, crop safety; settings: pre-emerge, 14 days after application, scale 0-100
Method in brief: as §2

[5] = tested on: large crabgrass (Digitaria sanguinalis, DIGSA); test: Pre-emerge test, greenhouse herbicide activity screening; settings: pre-emerge, 14 days after application, scale 0-100
Method in brief: (§3)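 Compounds in acetone were track-sprayed at 15–1000 g ai/ha: pre-emergence onto soil sown the previous day, then top-watered to incorporate and later bottom-watered; post-emergence onto 2–3 leaf plants with 0.25% v/v surfactant, bottom-watered only. Ratings on a 0–100 phytotoxicity scale were taken at day 14.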

[6] = tested on: barnyardgrass (Echinochloa crus-galli, ECHCG); test: as above; settings: pre-emerge, 14 days after application, scale 0-100
Method in brief: as §3

[7] = tested on: velvetleaf (Abutilon theophrasti, ABUTH); test: as above; settings: pre-emerge, 14 days after application, scale 0-100
Method in brief: as §3

[8] = tested on: lambsquarters (Chenopodium album, CHEAL); test: as above; settings: pre-emerge, 14 days after application, scale 0-100
Method in brief: as §3

[9] = tested on: green foxtail (Setaria viridis, SETVI); test: as above; settings: pre-emerge, 14 days after application, scale 0-100
Method in brief: as §3

[10] = tested on: sicklepod (Cassia obtusifolia, CASOB); test: as above; settings: pre-emerge, 14 days after application, scale 0-100
Method in brief: as §3

[11] = tested on: ivyleaf morningglory (Ipomoea hederacea, IPOHE); test: as above; settings: pre-emerge, 14 days after application, scale 0-100
Method in brief: as §3

[12] = tested on: johnsongrass (Sorghum halepense, SORHA); test: as above; settings: pre-emerge, 14 days after application, scale 0-100
Method in brief: as §3

[13] = tested on: large crabgrass (Digitaria sanguinalis, DIGSA); test: Post-emerge test, greenhouse herbicide activity screening; settings: post-emerge, 14 days after application, rating scale 0-100
Method in brief: (§4)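 Plants grown in 10 cm pots of sandy loam mix received acetone-dissolved compounds through a moving flat-fan nozzle. Doses ranged from 15 to 1000 g ai/ha. Pre-emerge pots were seeded one day earlier, post-emerge pots 8–21 days earlier. Fourteen days on, each pot was graded 0–100 for damage.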

[14] = tested on: redroot pigweed (Amaranthus retroflexus, AMARE); test: as above; settings: post-emerge, 14 days after application, rating scale 0-100
Method in brief: as §4

[15] = tested on: barnyardgrass (Echinochloa crus-galli, ECHCG); test: as above; settings: post-emerge, 14 days after application, rating scale 0-100
Method in brief: as §4

[16] = tested on: velvetleaf (Abutilon theophrasti, ABUTH); test: as above; settings: post-emerge, 14 days after application, rating scale 0-100
Method in brief: as §4

[17] = tested on: green foxtail (Setaria viridis, SETVI); test: as above; settings: post-emerge, 14 days after application, rating scale 0-100
Method in brief: as §4

[18] = tested on: sicklepod (Cassia obtusifolia, CASOB); test: as above; settings: post-emerge, 14 days after application, rating scale 0-100
Method in brief: as §4

[19] = tested on: ivyleaf morningglory (Ipomoea hederacea, IPOHE); test: as above; settings: post-emerge, 14 days after application, rating scale 0-100
Method in brief: as §4

[20] = tested on: redroot pigweed (Amaranthus retroflexus, AMARE); test: Pre-emerge test, greenhouse herbicide activity screening; settings: pre-emerge, 14 days after application, scale 0-100
Method in brief: as §4

COc1ccc(-n2c(=O)cc(C(F)(F)F)n(C)c2=O)c(NC(=O)c2ccc3ccccc3c2)c1 [2-143]
RICE phytotoxicity rating (crop damage) ([1]; 63 g ai/ha): 40 | RICE phytotoxicity rating (crop damage) ([1]; 250 g ai/ha): 70 | CORN phytotoxicity rating (crop damage) ([2]; 63 g ai/ha): 10 | CORN phytotoxicity rating (crop damage) ([2]; 250 g ai/ha): 35 | phytotoxicity rating RICE (crop damage) ([3]; 63 g ai/ha): 20 | phytotoxicity rating RICE (crop damage) ([3]; 250 g ai/ha): 65 | phytotoxicity rating CORN (crop damage) ([4]; 63 g ai/ha): 0 | phytotoxicity rating CORN (crop damage) ([4]; 250 g ai/ha): 5 | phytotoxicity rating DIGSA ([5]; 63 g ai/ha): 30 | phytotoxicity rating DIGSA ([5]; 250 g ai/ha): 100 | phytotoxicity rating ECHCG ([6]; 63 g ai/ha): 30 | phytotoxicity rating ECHCG ([6]; 250 g ai/ha): 85 | phytotoxicity rating ABUTH ([7]; 63 g ai/ha): 100 | phytotoxicity rating ABUTH ([7]; 250 g ai/ha): 100 | phytotoxicity rating CHEAL ([8]; 63 g ai/ha): 100 | phytotoxicity rating CHEAL ([8]; 250 g ai/ha): 100 | phytotoxicity rating SETVI ([9]; 63 g ai/ha): 30 | phytotoxicity rating SETVI ([9]; 250 g ai/ha): 70 | phytotoxicity rating CASOB ([10]; 63 g ai/ha): 0 | phytotoxicity rating CASOB ([10]; 250 g ai/ha): 90 | phytotoxicity rating IPOHE ([11]; 63 g ai/ha): 0 | phytotoxicity rating IPOHE ([11]; 250 g ai/ha): 35 | phytotoxicity rating SORHA ([12]; 63 g ai/ha): 30 | phytotoxicity rating SORHA ([12]; 250 g ai/ha): 80 | DIGSA phytotoxicity rating ([13]; 63 g ai/ha): 0 | DIGSA phytotoxicity rating ([13]; 250 g ai/ha): 40 | AMARE phytotoxicity rating ([14]; 63 g ai/ha): 100 | AMARE phytotoxicity rating ([14]; 250 g ai/ha): 100 | ECHCG phytotoxicity rating ([15]; 63 g ai/ha): 0 | ECHCG phytotoxicity rating ([15]; 250 g ai/ha): 30 | ABUTH phytotoxicity rating ([16]; 63 g ai/ha): 100 | ABUTH phytotoxicity rating ([16]; 250 g ai/ha): 100 | SETVI phytotoxicity rating ([17]; 63 g ai/ha): 0 | SETVI phytotoxicity rating ([17]; 250 g ai/ha): 40 | CASOB phytotoxicity rating ([18]; 63 g ai/ha): 70 | CASOB phytotoxicity rating ([18]; 250 g ai/ha): 100 | IPOHE phytotoxicity rating ([19]; 63 g ai/ha): 60 | IPOHE phytotoxicity rating ([19]; 250 g ai/ha): 100 | phytotoxicity rating AMARE ([20]; 63 g ai/ha): 100 | phytotoxicity rating AMARE ([20]; 250 g ai/ha): 100
